Measurements: ChEMBL document CHEMBL4706768, “Discovery of Potent, Selective Triazolothiadiazole-Containing c-Met Inhibitors” (ACS Med Chem Lett, 2021)

Experiments:
[1] = molecular target: Serine/threonine-protein kinase Nek2 (Homo sapiens) (UniProt P51955); assay: Inhibition of recombinant human N-terminal His6-tagged NEK2 expressed in baculovirus infected Sf21 insect cells at 2 uM using MBP as substrate relative to control
[2] = molecular target: Tyrosine-protein kinase ABL1 (Homo sapiens) (UniProt P00519); assay: Inhibition of recombinant N-terminal His6-tagged human ABL (27 to end residues) expressed in baculovirus infected Sf21 insect cells at 2 uM using Abltide as substrate relative to control
[3] = Unbound intrinsic clearance in mouse hepatocytes assessed per million cells; type: ADME, cell-based, Hepatocyte
Homo sapiens = species: Homo sapiens; assay: Inhibition of CK1 (unknown origin) at 2 uM relative to control
[4] = molecular target: Mitogen-activated protein kinase; ERK1/ERK2 (Homo sapiens) (UniProt P27361+P28482); assay: Inhibition of recombinant human full-length N-terminal GST-tagged MAPK1/ERK1 ([…]) expressed in Escherichia coli at 2 uM using MBP as substrate relative to control
[5] = molecular target: Tyrosine-protein kinase BTK (Homo sapiens) (UniProt Q06187); assay: Inhibition of recombinant N-terminal His6-tagged human full-length BTK expressed in Sf21 insect cells at 2 uM using Src peptide as substrate relative to control
[6] = molecular target: Serine/threonine-protein kinase 3 (Homo sapiens) (UniProt Q13188); assay: Inhibition of recombinant human N-terminal His6-tagged MST2 (2 to end residues) expressed in baculovirus infected Sf21 insect cells at 2 uM using MBP as substrate relative to control
[7] = molecular target: Vascular endothelial growth factor receptor 1 (Homo sapiens) (UniProt P17948); assay: Inhibition of recombinant human N-terminal GST-tagged FLT1 (783 to end residues) expressed in baculovirus infected Sf21 insect cells at 2 uM using KKKSPGEYVNIEFG as substrate relative to control
[8] = molecular target: Insulin-like growth factor 1 receptor (Homo sapiens) (UniProt P08069); assay: Inhibition of recombinant human N-terminal His6-tagged IGF1R (959 to end residues) expressed in baculovirus infected Sf21 insect cells at 2 uM relative to control
[9] = molecular target: ALK tyrosine kinase receptor (Homo sapiens) (UniProt Q9UM73); assay: Inhibition of recombinant N-terminal His6-tagged human ALK (1058 to end residues) expressed in baculovirus infected Sf21 insect cells at 2 uM using IGF-1Rtide as substrate relative to control
[10] = molecular target: Hepatocyte growth factor receptor (Homo sapiens, UniProt P08581); assay: Inhibition of c-Met (unknown origin) using poly Glu-Tyr as substrate preincubated for 10 mins followed by ATP addition by phosphoenolpyruvate/pyruvate kinase/lactate dehydrogenase coupled radiometric assay
[11] = molecular target: Mitogen-activated protein kinase 8 (Homo sapiens) (UniProt P45983); assay: Inhibition of recombinant human full-length N-terminal His-tagged JNK1alpha1 ([…]) expressed in Sf21 insect cells at 2 uM using ATF2 (19 to 96 residues) as substrate relative to control
[12] = molecular target: Tyrosine-protein kinase ZAP-70 (Homo sapiens) (UniProt P43403); assay: Inhibition of recombinant human full-length C-terminal His6-tagged ZAP70 expressed in Sf21 insect cells at 2 uM using poly (Glu4-Tyr) (4:1) as substrate relative to control
[13] = molecular target: Ephrin type-B receptor 4 (Homo sapiens) (UniProt P54760); assay: Inhibition of recombinant human N-terminal GST-tagged EphB4 (561 to end residues) expressed in baculovirus infected Sf21 insect cells at 2 uM using poly (Glu,Tyr) (4:1) as substrate relative to control
[14] = molecular target: Tyrosine-protein kinase Lyn (Homo sapiens) (UniProt P07948); assay: Inhibition of recombinant human N-terminal His6-tagged full-length LYN expressed in Sf21 insect cells at 2 uM using Poly (Glu4-Tyr) (4:1) as substrate relative to control
[15] = molecular target: Dual specificity mitogen-activated protein kinase kinase 7 (Homo sapiens) (UniProt O14733); assay: Inhibition of recombinant human N-terminal GST-tagged MKK7beta1 (2 to end residues) expressed in Escherichia coli at 2 uM using JNK1alpha1/SAPK1c as substrate relative to control
[16] = molecular target: Proto-oncogene tyrosine-protein kinase ROS (Homo sapiens) (UniProt P08922); assay: Inhibition of recombinant human N-terminal His6-tagged ROS (1883 to end residues) expressed in baculovirus infected Sf21 insect cells at 2 uM using KKKSPGEYVNIEFG as substrate relative to control
[17] = molecular target: Tyrosine-protein kinase Blk (Homo sapiens) (UniProt P51451); assay: Inhibition of recombinant N-terminal His6-tagged human full-length BLK expressed in Sf21 insect cells at 2 uM using Poly (Glu4-Tyr) (4:1) as substrate relative to control
[18] = molecular target: Serine/threonine-protein kinase mTOR (Homo sapiens) (UniProt P42345); assay: Inhibition of recombinant human N-terminal FLAG-tagged mTOR (1362 to end residues) at 2 uM relative to control
[19] = molecular target: Tyrosine-protein kinase receptor TYRO3 (Homo sapiens, UniProt Q06418); assay: Inhibition of SKY (unknown origin)
[20] = molecular target: Angiopoietin-1 receptor (Homo sapiens) (UniProt Q02763); assay: Inhibition of recombinant human N-terminal His6-tagged TIE2 (771 to end residues) expressed in baculovirus infected Sf21 insect cells at 2 uM using poly (Glu4-Tyr) (4:1) as substrate relative to control
[21] = molecular target: Cyclin-dependent kinase 5/CDK5 activator 1 (Homo sapiens) (UniProt Q00535+Q15078); assay: Inhibition of recombinant N-terminal His6-tagged human full-length CDK5/N-terminal GST-tagged full-length p35 expressed in baculovirus infected Sf21 insect cells at 2 uM using Histone H1 as substrate relative to control
[22] = molecular target: Ribosomal protein S6 kinase alpha-5 (Homo sapiens) (UniProt O75582); assay: Inhibition of recombinant human N-terminal His6-tagged MSK1 (2 to end residues) expressed in baculovirus infected Sf21 insect cells at 2 uM using Crosstide as substrate relative to control
[23] = molecular target: Receptor-type tyrosine-protein kinase FLT3 (Homo sapiens, UniProt P36888); assay: Inhibition of FLT3 (unknown origin)
[24] = Inhibition of GSK3 (unknown origin); parameters: species or system Homo sapiens
[25] = molecular target: Fibroblast growth factor receptor 3 (Homo sapiens) (UniProt P22607); assay: Inhibition of recombinant human N-terminal His6-tagged FGFR3 (447 to 761 residues) expressed in Sf21 insect cells at 2 uM using poly (Glu,Tyr) (4:1) as substrate relative to control
[26] = molecular target: Mitogen-activated protein kinase kinase kinase 5 (Homo sapiens) (UniProt Q99683); assay: Inhibition of recombinant N-terminal GST-tagged/C-terminal His6-tagged human ASK1 (649 to 946 residues) expressed in Escherichia coli at 2 uM using MBP as substrate relative to control
[27] = molecular target: Protein kinase C theta type (Homo sapiens) (UniProt Q04759); assay: Inhibition of recombinant human full-length C-terminal His6-tagged PKCtheta expressed in Sf21 insect cells at 2 uM using Histone H1 as substrate relative to control

Chain of Cyclin-dependent kinase 5/CDK5 activator 1 (Homo sapiens) (Q00535 whole entry): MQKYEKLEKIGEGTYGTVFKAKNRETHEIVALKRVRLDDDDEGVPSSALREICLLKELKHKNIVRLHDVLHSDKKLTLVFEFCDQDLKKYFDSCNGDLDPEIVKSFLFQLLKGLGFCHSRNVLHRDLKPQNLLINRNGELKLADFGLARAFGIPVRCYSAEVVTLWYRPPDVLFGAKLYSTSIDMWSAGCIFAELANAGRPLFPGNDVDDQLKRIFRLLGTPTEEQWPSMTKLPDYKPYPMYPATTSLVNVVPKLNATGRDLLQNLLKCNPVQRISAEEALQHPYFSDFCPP
Chain of Cyclin-dependent kinase 5/CDK5 activator 1 (Homo sapiens) (Q15078 99-307 partner limits assumed): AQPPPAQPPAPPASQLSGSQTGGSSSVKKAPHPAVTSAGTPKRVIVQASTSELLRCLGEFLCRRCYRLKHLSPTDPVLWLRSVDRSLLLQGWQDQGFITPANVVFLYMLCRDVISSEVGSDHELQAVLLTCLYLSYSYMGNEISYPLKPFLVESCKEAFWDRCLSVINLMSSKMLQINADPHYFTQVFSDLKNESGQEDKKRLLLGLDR
Chain of Fibroblast growth factor receptor 3 (Homo sapiens) (P22607 23-806 limits assumed): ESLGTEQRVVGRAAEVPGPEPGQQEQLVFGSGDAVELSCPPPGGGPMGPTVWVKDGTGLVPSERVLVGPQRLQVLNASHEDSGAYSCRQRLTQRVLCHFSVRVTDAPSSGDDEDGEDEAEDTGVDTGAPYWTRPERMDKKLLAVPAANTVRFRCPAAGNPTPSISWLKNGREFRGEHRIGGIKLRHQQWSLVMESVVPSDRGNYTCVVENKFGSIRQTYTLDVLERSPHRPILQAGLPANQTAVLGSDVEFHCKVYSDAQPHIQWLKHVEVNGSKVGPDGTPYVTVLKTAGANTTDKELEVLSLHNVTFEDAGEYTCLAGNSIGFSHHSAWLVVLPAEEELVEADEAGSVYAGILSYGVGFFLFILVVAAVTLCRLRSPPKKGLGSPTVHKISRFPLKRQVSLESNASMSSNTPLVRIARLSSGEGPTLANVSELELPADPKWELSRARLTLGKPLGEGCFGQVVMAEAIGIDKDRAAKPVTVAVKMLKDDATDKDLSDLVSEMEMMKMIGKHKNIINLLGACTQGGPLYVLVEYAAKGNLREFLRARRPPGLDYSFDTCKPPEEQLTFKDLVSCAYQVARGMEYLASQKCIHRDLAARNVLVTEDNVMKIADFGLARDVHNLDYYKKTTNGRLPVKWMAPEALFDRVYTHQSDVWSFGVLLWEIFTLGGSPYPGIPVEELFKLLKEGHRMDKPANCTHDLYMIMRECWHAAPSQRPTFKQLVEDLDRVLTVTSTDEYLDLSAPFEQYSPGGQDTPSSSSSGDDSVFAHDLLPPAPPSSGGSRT
Chain of Serine/threonine-protein kinase 3 (Homo sapiens) (Q13188 whole entry): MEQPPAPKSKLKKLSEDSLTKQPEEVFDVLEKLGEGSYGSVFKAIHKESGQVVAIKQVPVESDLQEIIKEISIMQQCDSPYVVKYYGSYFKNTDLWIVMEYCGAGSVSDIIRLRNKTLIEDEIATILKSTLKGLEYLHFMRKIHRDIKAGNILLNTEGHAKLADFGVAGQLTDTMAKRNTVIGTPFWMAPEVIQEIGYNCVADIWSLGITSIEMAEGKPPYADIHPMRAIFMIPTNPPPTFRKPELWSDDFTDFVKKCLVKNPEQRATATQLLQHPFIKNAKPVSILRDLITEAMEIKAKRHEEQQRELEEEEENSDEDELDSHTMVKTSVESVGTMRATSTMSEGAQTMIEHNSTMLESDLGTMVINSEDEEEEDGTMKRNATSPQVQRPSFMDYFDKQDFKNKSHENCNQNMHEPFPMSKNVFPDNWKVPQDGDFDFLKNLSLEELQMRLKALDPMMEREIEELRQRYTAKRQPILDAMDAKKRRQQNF
Chain of Tyrosine-protein kinase receptor TYRO3 (Q06418 whole entry): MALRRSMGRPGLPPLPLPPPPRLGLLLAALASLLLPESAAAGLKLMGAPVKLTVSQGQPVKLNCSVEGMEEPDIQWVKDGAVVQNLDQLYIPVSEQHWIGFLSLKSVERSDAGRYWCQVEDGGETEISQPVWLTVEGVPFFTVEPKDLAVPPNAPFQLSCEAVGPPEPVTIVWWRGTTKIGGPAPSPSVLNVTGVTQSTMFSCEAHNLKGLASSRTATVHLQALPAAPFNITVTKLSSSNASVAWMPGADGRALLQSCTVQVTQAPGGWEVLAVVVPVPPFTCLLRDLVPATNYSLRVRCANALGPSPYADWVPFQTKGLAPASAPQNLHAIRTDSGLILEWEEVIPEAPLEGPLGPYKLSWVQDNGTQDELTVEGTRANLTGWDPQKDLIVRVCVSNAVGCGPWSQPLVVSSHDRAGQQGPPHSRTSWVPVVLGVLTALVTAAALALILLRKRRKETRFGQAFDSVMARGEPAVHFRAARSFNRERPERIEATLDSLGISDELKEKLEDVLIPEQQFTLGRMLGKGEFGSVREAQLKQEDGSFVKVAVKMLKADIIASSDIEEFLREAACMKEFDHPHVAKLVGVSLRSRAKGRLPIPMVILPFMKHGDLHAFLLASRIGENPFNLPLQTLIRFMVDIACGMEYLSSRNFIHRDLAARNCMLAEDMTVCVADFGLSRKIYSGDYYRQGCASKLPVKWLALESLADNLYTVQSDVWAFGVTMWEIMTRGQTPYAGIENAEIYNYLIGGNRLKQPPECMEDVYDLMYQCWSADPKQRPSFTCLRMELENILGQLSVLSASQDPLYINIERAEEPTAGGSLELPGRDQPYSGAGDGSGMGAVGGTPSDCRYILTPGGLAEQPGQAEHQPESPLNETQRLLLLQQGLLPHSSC
Chain of Angiopoietin-1 receptor (Homo sapiens) (Q02763 whole entry): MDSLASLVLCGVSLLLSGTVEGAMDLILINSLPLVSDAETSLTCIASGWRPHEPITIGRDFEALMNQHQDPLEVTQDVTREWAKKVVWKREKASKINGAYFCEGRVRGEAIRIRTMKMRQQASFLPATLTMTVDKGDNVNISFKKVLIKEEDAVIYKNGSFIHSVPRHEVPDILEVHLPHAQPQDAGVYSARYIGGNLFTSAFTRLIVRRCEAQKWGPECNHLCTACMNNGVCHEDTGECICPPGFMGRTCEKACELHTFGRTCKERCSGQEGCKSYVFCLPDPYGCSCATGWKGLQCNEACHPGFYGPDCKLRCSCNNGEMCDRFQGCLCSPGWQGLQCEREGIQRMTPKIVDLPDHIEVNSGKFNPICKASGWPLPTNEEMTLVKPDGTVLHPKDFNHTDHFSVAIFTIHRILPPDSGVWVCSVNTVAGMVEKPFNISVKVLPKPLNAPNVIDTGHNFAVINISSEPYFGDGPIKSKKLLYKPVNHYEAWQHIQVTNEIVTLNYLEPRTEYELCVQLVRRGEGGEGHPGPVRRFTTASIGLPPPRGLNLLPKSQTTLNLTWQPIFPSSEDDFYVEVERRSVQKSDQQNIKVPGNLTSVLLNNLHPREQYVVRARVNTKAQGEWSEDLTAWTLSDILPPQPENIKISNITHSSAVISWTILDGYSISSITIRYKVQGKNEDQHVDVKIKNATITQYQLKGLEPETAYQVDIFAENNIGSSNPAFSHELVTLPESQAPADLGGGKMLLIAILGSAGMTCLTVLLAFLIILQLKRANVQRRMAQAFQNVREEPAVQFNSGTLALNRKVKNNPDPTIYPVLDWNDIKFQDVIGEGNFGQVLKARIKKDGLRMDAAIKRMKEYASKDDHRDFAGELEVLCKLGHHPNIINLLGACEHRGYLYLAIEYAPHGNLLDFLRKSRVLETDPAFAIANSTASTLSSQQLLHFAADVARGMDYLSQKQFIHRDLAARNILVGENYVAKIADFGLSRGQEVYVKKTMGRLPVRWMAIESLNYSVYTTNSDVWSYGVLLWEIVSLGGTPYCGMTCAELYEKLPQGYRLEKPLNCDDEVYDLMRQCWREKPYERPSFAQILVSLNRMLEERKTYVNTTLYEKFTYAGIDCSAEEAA
Chain of Receptor-type tyrosine-protein kinase FLT3 (P36888 whole entry): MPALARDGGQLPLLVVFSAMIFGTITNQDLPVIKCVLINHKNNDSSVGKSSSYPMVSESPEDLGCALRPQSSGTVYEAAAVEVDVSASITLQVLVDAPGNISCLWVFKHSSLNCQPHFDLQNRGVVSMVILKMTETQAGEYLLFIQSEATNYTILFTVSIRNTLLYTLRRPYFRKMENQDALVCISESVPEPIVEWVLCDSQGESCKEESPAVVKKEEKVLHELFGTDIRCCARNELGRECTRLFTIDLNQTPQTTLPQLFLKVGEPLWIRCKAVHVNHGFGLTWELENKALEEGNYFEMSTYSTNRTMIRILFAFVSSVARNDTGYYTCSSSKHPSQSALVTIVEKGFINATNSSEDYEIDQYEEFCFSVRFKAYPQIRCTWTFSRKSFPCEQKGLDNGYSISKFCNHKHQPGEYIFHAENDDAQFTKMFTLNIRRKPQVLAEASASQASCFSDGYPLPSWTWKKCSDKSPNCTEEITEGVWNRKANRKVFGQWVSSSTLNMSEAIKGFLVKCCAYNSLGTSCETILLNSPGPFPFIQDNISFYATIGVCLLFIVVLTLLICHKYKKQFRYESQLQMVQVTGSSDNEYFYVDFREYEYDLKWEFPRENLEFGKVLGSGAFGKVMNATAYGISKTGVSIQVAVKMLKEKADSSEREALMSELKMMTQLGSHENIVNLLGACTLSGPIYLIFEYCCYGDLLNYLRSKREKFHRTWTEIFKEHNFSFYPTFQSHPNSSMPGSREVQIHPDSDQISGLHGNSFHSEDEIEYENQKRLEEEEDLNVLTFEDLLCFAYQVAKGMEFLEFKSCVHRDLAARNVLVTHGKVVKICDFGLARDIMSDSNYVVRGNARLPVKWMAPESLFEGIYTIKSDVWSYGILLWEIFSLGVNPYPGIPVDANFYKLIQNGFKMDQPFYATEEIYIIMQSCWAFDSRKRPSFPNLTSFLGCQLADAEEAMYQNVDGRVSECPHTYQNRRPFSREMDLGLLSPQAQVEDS

## C[C@@H](c1ccc2ncccc2c1)c1nnc2sc(-c3cnn(C)c3)nn12
[1]
  inhibition: < 50%
[2]
  inhibition: < 50%
[3]
  CL free: 7.2 µL/min
Homo sapiens
  inhibition: < 50%
[4]
  inhibition: < 50%
[5]
  inhibition: < 50%
[6]
  inhibition: < 50%
[7]
  inhibition: < 50%
[8]
  inhibition: < 50%
[9]
  inhibition: < 50%
[10]
  Ki: 0.02 µM
[11]
  inhibition: < 50%
[12]
  inhibition: < 50%
[13]
  inhibition: < 50%
[14]
  inhibition: < 50%
[15]
  inhibition: < 50%
[16]
  inhibition: < 50%
[17]
  inhibition: < 50%
[18]
  inhibition: < 50%
[19]
  Ki: > 4 µM
[20]
  inhibition: < 50%
[21]
  inhibition: < 50%
[22]
  inhibition: < 50%
[23]
  Ki: > 4 µM
[24]
  Ki: > 4 µM
[25]
  inhibition: < 50%
[26]
  inhibition: < 50%
[27]
  inhibition: < 50%
